In patent US20200207734A1, “HETEROCYCLIC COMPOUND AND USE THEREOF” (Takeda Pharmaceutical Company Limited, priority 2017, published 2020):

The compounds below were run against T1, human orexin type 2 receptor (Homo sapiens, UniProt O43614) (assay: Measurement of orexin type 2 receptor agonist activity (calcium fluorescence, CHO cells expressing hOX2R)). Conditions: test compound 3 μM; CHO cells expressing human OX2 receptor; DMSO = 0%, orexin A (human) = 100%.
T1 construct: human orexin type 2 receptor cDNA was inserted into pcDNA3.1(+) plasmid vector (Invitrogen); expressed in transfected cells
T1 sequence (O43614 1-444): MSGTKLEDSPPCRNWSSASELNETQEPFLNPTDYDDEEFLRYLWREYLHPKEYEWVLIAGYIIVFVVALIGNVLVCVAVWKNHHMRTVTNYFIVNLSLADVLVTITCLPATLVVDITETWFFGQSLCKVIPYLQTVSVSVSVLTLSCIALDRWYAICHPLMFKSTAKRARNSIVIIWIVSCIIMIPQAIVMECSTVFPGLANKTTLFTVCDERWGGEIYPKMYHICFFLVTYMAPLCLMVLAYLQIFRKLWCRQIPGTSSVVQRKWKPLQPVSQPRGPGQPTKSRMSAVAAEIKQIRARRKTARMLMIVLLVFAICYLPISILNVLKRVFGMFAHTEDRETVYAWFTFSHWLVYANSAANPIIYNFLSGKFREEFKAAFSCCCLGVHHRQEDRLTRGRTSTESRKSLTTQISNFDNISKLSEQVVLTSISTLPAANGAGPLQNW
Assay type: cell-based
How it was run: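 CHO-dhfr cells stably expressing hOX2R, loaded with Fluo-4 AM in HBSS/20 mM HEPES/0.1% BSA with probenecid, then given test compound. Calcium fluorescence was read for about 2 min 40 sec. Activity (%) was scaled between DMSO (0%) and 10 nM final human orexin A (100%).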

Which “OX2R agonist activity (3 μM, %)” value does the source give for `CS(=O)(=O)N[C@H]1CCN(C(=O)C2(O)CCC2)[C@H]1Cc1csc(-c2cc(F)cc(F)c2)n1` (relative stereo) [Example 323, N-(cis-2-((2-(3,5-difluorophenyl)-1,3-thiazol-4-yl)methyl)-1-((1-hydroxycyclobutyl)carbonyl)pyrrolidin-3-yl)methanesulfonamide] here?
Its value is 109%.

With `CS(=O)(=O)N[C@H]1CCN(C(=O)N2CCC2)[C@H]1Cc1cccc(-c2cccc(F)c2)n1` (relative stereo) [Example 333, N-(cis-1-(azetidin-1-ylcarbonyl)-2-((6-(3-fluorophenyl)pyridin-2-yl)methyl)pyrrolidin-3-yl)methanesulfonamide] as the compound, how does the “OX2R agonist activity (3 μM, %)” value read?
Its value is 101%.

Which “OX2R agonist activity (3 μM, %)” value does the source give for `CS(=O)(=O)N[C@H]1CCN(C(=O)C2(O)CCC2)[C@H]1Cc1cccc(-c2cccc(F)c2)n1` (relative stereo) [Example 338, N-(cis-2-((6-(3-fluorophenyl)pyridin-2-yl)methyl)-1-((1-hydroxycyclobutyl)carbonyl)pyrrolidin-3-yl)methanesulfonamide] here?
Its value is 103%.

For `CC(C)OC(=O)N1CCCC(NS(C)(=O)=O)C1Cc1cccc(-c2ccccc2)n1` (stereo not drawn) [Example 76, Optically Active isopropyl cis-3-((methylsulfonyl)amino)-2-((6-phenylpyridin-2-yl)methyl)piperidine-1-carboxylate], which “OX2R agonist activity (3 μM, %)” value is on record?
Its value is 106%.

For `CCOC(=O)N1CC[C@H](NS(C)(=O)=O)[C@@H]1Cc1cccc(-c2ccccc2)c1` [Example 101, ethyl (2S,3S)-2-(biphenyl-3-ylmethyl)-3-((methylsulfonyl)amino)pyrrolidine-1-carboxylate], which “OX2R agonist activity (3 μM, %)” value is on record?
The value was 96%.

For `CC(C)OC(=O)N1CCCC(NS(C)(=O)=O)C1Cc1csc(-c2ccccc2)n1` (stereo not drawn) [Example 210, Optically Active isopropyl cis-3-((methylsulfonyl)amino)-2-((2-phenyl-1,3-thiazol-4-yl)methyl)piperidine-1-carboxylate], which “OX2R agonist activity (3 μM, %)” value is on record?
The value was 102%.

Which “OX2R agonist activity (3 μM, %)” value does the source give for `CS(=O)(=O)N[C@H]1CCN(C(=O)C2CCC2)[C@H]1Cc1cccc(-c2ccccc2)c1` [Example 261, N-((2S,3S)-2-(biphenyl-3-ylmethyl)-1-(cyclobutylcarbonyl)pyrrolidin-3-yl)methanesulfonamide] here?
The value was 97%.

How did the “OX2R agonist activity (3 μM, %)” value turn out when `CS(=O)(=O)N[C@H]1CCN(C(=O)C2CCC2)[C@H]1Cc1cccc(-c2cccc(F)c2)c1` [Example 262, N-((2S,3S)-1-(cyclobutylcarbonyl)-2-((3′-fluorobiphenyl-3-yl)methyl)pyrrolidin-3-yl)methanesulfonamide] was run?
The value was 101%.

How did the “OX2R agonist activity (3 μM, %)” value turn out when `CS(=O)(=O)N[C@H]1CCN(C(=O)C2(F)CCC2)[C@H]1Cc1cccc(-c2cccc(F)c2)c1` [Example 266, N-((2S,3S)-2-((3′-fluorobiphenyl-3-yl)methyl)-1-((1-fluorocyclobutyl)carbonyl)pyrrolidin-3-yl)methanesulfonamide] was run?
The value was 107%.

Which “OX2R agonist activity (3 μM, %)” value does the source give for `CC1(C(=O)N2CC[C@H](NS(C)(=O)=O)[C@@H]2Cc2cccc(-c3cccc(F)c3)c2)CCC1` [Example 305, N-((2S,3S)-2-((3′-fluorobiphenyl-3-yl)methyl)-1-((1-methylcyclobutyl)carbonyl)pyrrolidin-3-yl)methanesulfonamide] here?
Its value is 105%.

With `CS(=O)(=O)N[C@H]1CCN(C(=O)C23CC(C2)C3)[C@H]1Cc1cccc(-c2cccc(F)c2)c1` [Example 306, N-((2S,3S)-1-(bicyclo[1.1.1]pent-1-ylcarbonyl)-2-((3′-fluorobiphenyl-3-yl)methyl)pyrrolidin-3-yl)methanesulfonamide] as the compound, how does the “OX2R agonist activity (3 μM, %)” value read?
The value was 100%.

For `CS(=O)(=O)N[C@H]1CCN(C(=O)C23CC(C2)C3)[C@H]1Cc1cccc(-c2cc(F)cc(F)c2)c1` [Example 307, N-((2S,3S)-1-(bicyclo[1.1.1]pent-1-ylcarbonyl)-2-((3′,5′-difluorobiphenyl-3-yl)methyl)pyrrolidin-3-yl)methanesulfonamide], which “OX2R agonist activity (3 μM, %)” value is on record?
The value was 102%.

For `CS(=O)(=O)N[C@H]1CCN(C(=O)C2(O)CCC2)[C@H]1Cc1cccc(-c2cccc(F)c2)c1` [Example 308, N-((2S,3S)-2-((3′-fluorobiphenyl-3-yl)methyl)-1-((1-hydroxycyclobutyl)carbonyl)pyrrolidin-3-yl)methanesulfonamide], which “OX2R agonist activity (3 μM, %)” value is on record?
Its value is 107%.

With `CS(=O)(=O)N[C@H]1CCN(C(=O)C2(C(F)(F)F)CCC2)[C@H]1Cc1cccc(-c2cccc(F)c2)c1` [Example 309, N-((2S,3S)-2-((3′-fluorobiphenyl-3-yl)methyl)-1-((1-(trifluoromethyl)cyclobutyl)carbonyl)pyrrolidin-3-yl)methanesulfonamide] as the compound, how does the “OX2R agonist activity (3 μM, %)” value read?
The value was 101%.

Which “OX2R agonist activity (3 μM, %)” value does the source give for `CS(=O)(=O)N[C@H]1CCN(C(=O)C2CCC2)[C@H]1Cc1cccc(-c2cc(F)cc(F)c2)c1` [Example 310, N-((2S,3S)-1-(cyclobutylcarbonyl)-2-((3′,5′-difluorobiphenyl-3-yl)methyl)pyrrolidin-3-yl)methanesulfonamide] here?
The value was 102%.

Which “OX2R agonist activity (3 μM, %)” value does the source give for `Cc1cccc(-c2cccc(C[C@H]3[C@@H](NS(C)(=O)=O)CCN3C(=O)C3CCC3)c2)c1` [Example 311, N-((2S,3S)-1-(cyclobutylcarbonyl)-2-((3′-methylbiphenyl-3-yl)methyl)pyrrolidin-3-yl)methanesulfonamide] here?
The value was 103%.

For `COCS(=O)(=O)N[C@H]1CCN(C(=O)C2CCC2)[C@H]1Cc1cccc(-c2cccc(F)c2)c1` [Example 312, N-((2S,3S)-1-(cyclobutylcarbonyl)-2-((3′-fluorobiphenyl-3-yl)methyl)pyrrolidin-3-yl)-1-methoxymethanesulfonamide], which “OX2R agonist activity (3 μM, %)” value is on record?
The value was 103%.

`CS(=O)(=O)N[C@H]1CCN(C(=O)N2CCC2)[C@H]1Cc1cccc(-c2cccc(F)c2)c1` [Example 313, N-((2S,3S)-1-(azetidin-1-ylcarbonyl)-2-((3′-fluorobiphenyl-3-yl)methyl)pyrrolidin-3-yl)methanesulfonamide] was tested. Which “OX2R agonist activity (3 μM, %)” value did it give?
Its value is 100%.

Which “OX2R agonist activity (3 μM, %)” value does the source give for `COC1(C(=O)N2CC[C@H](NS(C)(=O)=O)[C@@H]2Cc2cccc(-c3cccc(F)c3)c2)CCC1` [Example 314, N-((2S,3S)-2-((3′-fluorobiphenyl-3-yl)methyl)-1-((1-methoxycyclobutyl)carbonyl)pyrrolidin-3-yl)methanesulfonamide] here?
Its value is 107%.

With `CS(=O)(=O)N[C@H]1CCN(C(=O)C2CCC2)[C@H]1Cc1csc(-c2cccc(F)c2)n1` [Example 320, N-((2S,3S)-1-(cyclobutylcarbonyl)-2-((2-(3-fluorophenyl)-1,3-thiazol-4-yl)methyl)pyrrolidin-3-yl)methanesulfonamide] as the compound, how does the “OX2R agonist activity (3 μM, %)” value read?
The value was 103%.

How did the “OX2R agonist activity (3 μM, %)” value turn out when `O=C(C1CCC1)N1CC[C@H](NS(=O)(=O)C2CC2)[C@@H]1Cc1csc(-c2ccccc2)n1` [Example 321, N-((2S,3S)-1-(cyclobutylcarbonyl)-2-((2-phenyl-1,3-thiazol-4-yl)methyl)pyrrolidin-3-yl)cyclopropanesulfonamide] was run?
The value was 104%.

Which “OX2R agonist activity (3 μM, %)” value does the source give for `COCS(=O)(=O)N[C@H]1CCN(C(=O)C2CCC2)[C@H]1Cc1cccc(-c2ccccc2)c1` [Example 324, N-((2S,3S)-2-(biphenyl-3-ylmethyl)-1-(cyclobutylcarbonyl)pyrrolidin-3-yl)-1-methoxymethanesulfonamide] here?
The value was 103%.

`CS(=O)(=O)N[C@H]1CCN(C(=O)C2CCO2)[C@H]1Cc1cccc(-c2cccc(F)c2)c1` (stereo partly drawn) [Example 328, N-((2S,3S)-2-((3′-fluorobiphenyl-3-yl)methyl)-1-(oxetan-2-ylcarbonyl)pyrrolidin-3-yl)methanesulfonamide] was tested. Which “OX2R agonist activity (3 μM, %)” value did it give?
The value was 104%.

Which “OX2R agonist activity (3 μM, %)” value does the source give for `CS(=O)(=O)N[C@H]1CCN(C(=O)C2(O)CCC2)[C@H]1Cc1csc(-c2cc(F)cc(F)c2)n1` [Example 339, N-((2S,3S)-2-((2-(3,5-difluorophenyl)-1,3-thiazol-4-yl)methyl)-1-((1-hydroxycyclobutyl)carbonyl)pyrrolidin-3-yl)methanesulfonamide] here?
The value was 102%.

For `CS(=O)(=O)N[C@H]1CCN(C(=O)N2CCC2)[C@H]1Cc1csc(-c2cc(F)cc(F)c2)n1` [Example 340, N-((2S,3S)-1-(azetidin-1-ylcarbonyl)-2-((2-(3,5-difluorophenyl)-1,3-thiazol-4-yl)methyl)pyrrolidin-3-yl)methanesulfonamide], which “OX2R agonist activity (3 μM, %)” value is on record?
Its value is 103%.

`CS(=O)(=O)N[C@H]1CCN(C(=O)N2CC(F)C2)[C@H]1Cc1cccc(-c2cccc(F)c2)c1` [Example 341, N-((2S,3S)-1-((3-fluoroazetidin-1-yl)carbonyl)-2-((3′-fluorobiphenyl-3-yl)methyl)pyrrolidin-3-yl)methanesulfonamide] was tested. Which “OX2R agonist activity (3 μM, %)” value did it give?
The value was 98%.

`CS(=O)(=O)N[C@H]1CCN(C(=O)N2CC(F)(F)C2)[C@H]1Cc1cccc(-c2cccc(F)c2)c1` [Example 342, N-((2S,3S)-1-((3,3-difluoroazetidin-1-yl)carbonyl)-2-((3′-fluorobiphenyl-3-yl)methyl)pyrrolidin-3-yl)methanesulfonamide] was tested. Which “OX2R agonist activity (3 μM, %)” value did it give?
Its value is 109%.

`CC1CCN1C(=O)N1CC[C@H](NS(C)(=O)=O)[C@@H]1Cc1cccc(-c2cccc(F)c2)c1` (stereo partly drawn) [Example 343, N-((2S,3S)-2-((3′-fluorobiphenyl-3-yl)methyl)-1-((2-methylazetidin-1-yl)carbonyl)pyrrolidin-3-yl)methanesulfonamide] was tested. Which “OX2R agonist activity (3 μM, %)” value did it give?
The value was 107%.
